pIC50: −log10 of the molar value.
Test system: HEK293T cells stably transfected with 8×TBD luciferase reporter and pRLTK
Assay: YAP Reporter Assay (8×TBD firefly luciferase reporter)
Type: cell-based
Settings: Homo sapiens, HEK-293T; HEK293T 8×TBD reporter cells, 24-hr incubation, top concentration 3 μM, 1:3 dilution, 10 points
Method: HEK293T cells stably transfected with 8×TBD luciferase reporter and pRLTK in 384-well plates were treated with the test compounds, starting from 3 μM (final concentration in assay plate), 1:3 dilution, and 10 points in quadruplicates. Post 24-hr incubation with compounds at 37° C. and 5% CO2, cells were lysed and 8×TBD-driven firefly luciferase and control TK-driven renilla luciferase activities were measured using Promega Dual-Luciferase Reporter Assay System.
Reagents: The reagents used for this study are: DMEM: Invitrogen #11960077, Dual-Glo Luciferase Assay System: Promega-E2980, Puromycin Dihydrochloride: Invitrogen-A1113803, 384-well plate: PerkinElmer-6007480, L-GLUTAMINE: Invitrogen-25030164, Hygromycin B: Invitrogen-10687010, and Penicillin-Streptomycin: Merk-TMS-AB2-C
Media: The media used for this assay were: Culture Medium: DMEM+1 ug/mL puromycin+200 ug/mL hygromycin (with 10% FBS+1 mM L-glutamine); and Assay Medium: DMEM (with 10% FBS+1 mM L-glutamine+1×P/S).
Cell Plating: The appropriate media was warmed at 37° C. by water bath: Culture Medium, Assay Medium, 1*D-PBS, 0.05% trypsin-EDTA. The cells were trypsinized after removing all media, then washed with 1* sterile D-PBS and then with 2 ml 0.05% trypsin-EDTA. The cells were then incubated at RT for one minute. Then 10 ml/75 cm2 flask Assay Medium was added to each flask. Using a 10 ml pipette, the cells were then gently resuspended in the media, until the clumps completely disappeared. The cells were then transferred into 50 ml centrifuge tubes and were centrifuged at 800 rpm for 5 mins. The medium was removed and the cells were resuspended with Assay Medium. An aliquot of cells was used to count the cell density (cells/ml). The cell suspension was then diluted with Assay Medium to a concentration of 6×10^4 cells/ml. 50 ul cells suspension was then plated to 384-well plate (PerkinElmer-6007480), 3×10^3 cells/well and the cells were incubated in an incubator at 37° C., 5% CO2.
Compound Treatment: In the afternoon (incubation of the plate with 3-4 hrs), the test compounds were added by Echo, starting from 3 uM (final concentration in the assay plate), 1:3 dilution, 10 points, quadruplicates. The plate was placed at 37° C., 5% CO2 incubator for 24 hrs.
Detection: The Dual-Glo Luciferase Reagent was prepared by transferring the contents of one bottle of Dual-Glo Luciferase Buffer to one bottle of Dual-Glo Luciferase Substrate to create the Dual-Glo Luciferase Reagent. Mixing was performed by inversion until the substrate was thoroughly dissolved. After mixing, the reagent was aliquoted into 15 ml tubes. In the afternoon (24 hrs post compound treatment), the DMEM+ medium in the 384 well plates were aspirated by Microplate Washer.
Measuring firefly luciferase activity: 20 ul Dual-Glo Luciferase Reagent was added to the 384-well plates. The plates were protected from light to prevent interference with the assay. The plates were shaken for 1 min followed centrifuging plates at 1000 rpm for 30 seconds. After waiting at least 10 minutes, the firefly luminescence was measured by Envision.
Measuring renilla luciferase activity: 20 ul Stop-Glo Reagent was added to the 384-well plates. The plates were shaken for 1 min and then centrifuged at 1000 rpm for 30 seconds. After waiting at least 10 minutes, the renilla luminescence was measured by Envision.
Compound IC50 and maximum inhibition on the firefly luciferase and renilla luciferase activities were reported separately.

| SMILES | pIC50 |
| --- | --- |
| COC(=O)c1ccc(Nc2ccc(C(F)(F)F)cc2)c(-c2nnn(C)n2)c1 [Compound 1, methyl 3-(2-methyl-2H-tetrazol-5-yl)-4-((4-(trifluoromethyl)phenyl)amino)benzoate] | ≥ 7.00 |
| COC(=O)c1ccc(Nc2cccc(C(F)(F)F)c2)c(-c2nnn(C)n2)c1 [Compound 2, methyl 3-(2-methyl-2H-telrazol-5-yl)-4-((3-(trifluoromethyl)phenyl)amino)benzoate] | ≥ 7.00 |
| Cn1nnc(-c2cc(C(=O)O)ccc2Nc2ccc(C(F)(F)F)cc2)n1 [Compound 3, 3-(2-methyl-2H-tetrazol-5-yl)-4-((4-(trifluoromethyl)phenyl)amino) benzoic acid] | ≥ 7.00 |
| Cn1nnc(-c2cc(C(=O)O)ccc2Nc2cccc(C(F)(F)F)c2)n1 [Compound 4, 3-(2-methyl-2H-tetrazol-5-yl)-4-((3-(trifluoromethyl)phenyl)amino) benzoic acid] | ≥ 7.00 |
| CNC(=O)c1ccc(Nc2cccc(C(F)(F)F)c2)c(-c2nnn(C)n2)c1 [Compound 5, N-methyl-3-(2-methyl-2H-tetrazol-5-yl)-4-((3-(trifluoromethyl)phenyl)amino) benzamide] | ≥ 7.00 |
| Cn1nnc(-c2cc(C(N)=O)ccc2Nc2cccc(C(F)(F)F)c2)n1 [Compound 6, 3-(2-methyl-2H-tetrazol-5-yl)-4-((3-(trifluoromethyl)phenyl)amino) benzamide] | ≥ 7.00 |
| Cn1nnc(-c2cc(C(N)=O)ccc2Nc2ccc(C(F)(F)F)cc2)n1 [Compound 7, 3-(2-methyl-2H-tetrazol-5-yl)-4-((4-(trifluoromethyl)phenyl)amino) benzamide] | ≥ 7.00 |
| CNC(=O)c1ccc(Nc2ccc(C(F)(F)F)cc2)c(-c2nnn(C)n2)c1 [Compound 8, N-methyl-3-(2-methyl-2H-tetrazol-5-yl)-4-((4-(trifluoromethyl)phenyl)amino) benzamide] | ≥ 7.00 |
| CCNC(=O)c1ccc(Nc2ccc(C(F)(F)F)cc2)c(-c2nnn(C)n2)c1 [Compound 10, N-ethyl-3-(2-methyl-2H-tetrazol-5-yl)-4-((4-(trifluoromethyl)phenyl)amino) benzamide] | ≥ 7.00 |
| CC(C)NC(=O)c1ccc(Nc2ccc(C(F)(F)F)cc2)c(-c2nnn(C)n2)c1 [Compound 11, N-isopropyl-3-(2-methyl-2H-tetrazol-5-yl)-4-((4-(trifluoromethyl)phenyl)amino) benzamide] | ≥ 7.00 |
| COC(=O)c1ccc(Nc2ccc(C(=O)NC(C)C)cc2)c(-c2nnn(C)n2)c1 [Compound 12, methyl 4-((4-(isopropylcarbamoyl)phenyl)amino)-3-(2-methyl-2H-tetrazol-5-yl)benzoate] | 5.52 to 6.00 |
| CN(C)C(=O)c1ccc(Nc2ccc(C(F)(F)F)cc2)c(-c2nnn(C)n2)c1 [Compound 13, N,N-dimethyl-3-(2-methyl-2H-tetrazol-5-yl)-4-((4-(trifluoromethyl)phenyl)amino) benzamide] | 6.00 to 7.00 |
| Cn1nnc(-c2cc(C(=O)NS(C)(=O)=O)ccc2Nc2ccc(C(F)(F)F)cc2)n1 [Compound 15, 3-(2-methyl-2H-tetrazol-5-yl)-N-(methylsulfonyl)-4-((4-(trifluoromethyl)phenyl)amino) benzamide] | ≥ 7.00 |
| CCN(CC)C(=O)c1ccc(Nc2ccc(C(F)(F)F)cc2)c(-c2nnn(C)n2)c1 [Compound 17, N,N-diethyl-3-(2-methyl-2H-tetrazol-5-yl)-4-((4-(trifluoromethyl)phenyl)amino) benzamide] | 6.00 to 7.00 |
| CN(C)C(=O)c1ccc(Nc2cccc(C(F)(F)F)c2)c(-c2nnn(C)n2)c1 [Compound 19, N,N-dimethyl-3-(2-methyl-2H-tetrazol-5-yl)-4-((3-(trifluoromethyl)phenyl)amino) benzamide] | 6.00 to 7.00 |
| CCN(CC)C(=O)c1ccc(Nc2cccc(C(F)(F)F)c2)c(-c2nnn(C)n2)c1 [Compound 20, N,N-diethyl-3-(2-methyl-2H-tetrazol-5-yl)-4-((3-(trifluoromethyl)phenyl)amino) benzamide] | 6.00 to 7.00 |

| SMILES | pIC50 |
| --- | --- |
| CC(C)NC(=O)c1ccc(Nc2cccc(C(F)(F)F)c2)c(-c2nnn(C)n2)c1 [Compound 21, N-isopropyl-3-(2-methyl-2H-tetrazol-5-yl)-4-((3-(trifluoromethyl)phenyl)amino) benzamide] | ≥ 7.00 |
| CCNC(=O)c1ccc(Nc2cccc(C(F)(F)F)c2)c(-c2nnn(C)n2)c1 [Compound 22, N-ethyl-3-(2-methyl-2H-tetrazol-5-yl)-4-((3-(trifluoromethyl)phenyl)amino) benzamide] | ≥ 7.00 |
| Cn1nnc(-c2cc(C(=O)NS(C)(=O)=O)ccc2Nc2cccc(C(F)(F)F)c2)n1 [Compound 23, 3-(2-methyl-2H-tetrazol-5-yl)-N-(methylsulfonyl)-4-((3-(trifluoromethyl)phenyl)amino) benzamide] | ≥ 7.00 |
| COC(=O)c1ccc(Nc2ccc(C(F)(F)F)cc2)c(-c2nnn(Cc3ccccc3F)n2)c1 [Compound 24, methyl 3-(2-(2-fluorobenzyl)-2H-tetrazol-5-yl)-4-((4-(trifluoromethyl)phenyl)amino) benzoate] | 6.00 to 7.00 |
| O=C(O)c1ccc(Nc2ccc(C(F)(F)F)cc2)c(-c2nnn(Cc3ccccc3F)n2)c1 [Compound 25, 3-(2-(2-fluorobenzyl)-2H-tetrazol-5-yl)-4-((4-(trifluoromethyl)phenyl)amino) benzoic acid] | ≥ 7.00 |
| COC(=O)c1ccc(Nc2cccc(C(F)(F)F)c2)c(-c2nnn(Cc3ccccc3F)n2)c1 [Compound 26, methyl 3-(2-(2-fluorobenzyl)-2H-tetrazol-5-yl)-4-((3-(trifluoromethyl)phenyl)amino) benzoate] | 6.00 to 7.00 |
| O=C(O)c1ccc(Nc2cccc(C(F)(F)F)c2)c(-c2nnn(Cc3ccccc3F)n2)c1 [Compound 27, 3-(2-(2-fluorobenzyl)-2H-tetrazol-5-yl)-4-((3-(trifluoromethyl)phenyl)amino) benzoic acid] | ≥ 7.00 |
| Cn1cnc(-c2cc(C(=O)O)ccc2Nc2ccc(C(F)(F)F)cc2)c1 [Compound 28, 3-(1-methyl-1H-imidazol-4-yl)-4-((4-(trifluoromethyl)phenyl)amino) benzoic acid] | ≥ 7.00 |
| CC(C)NC(=O)c1ccc(Nc2ccc(C(F)(F)F)cc2)c(-c2ccnc(N)c2)c1 [Compound 29, 3-(2-aminopyridin-4-yl)-N-isopropyl-4-((4-(trifluoromethyl)phenyl)amino) benzamide] | 6.00 to 7.00 |
| Nc1cc(-c2cc(C(=O)O)ccc2Nc2ccc(C(F)(F)F)cc2)ccn1 [Compound 30, 3-(2-aminopyridin-4-yl)-4-((4-(trifluoromethyl)phenyl)amino) benzoic acid] | ≥ 7.00 |
| COC(=O)c1ccc(Nc2ccc(C(F)(F)F)cc2)c(-c2cn(C)cn2)c1 [Compound 33, methyl 3-(1-methyl-1H-imidazol-4-yl)-4-((4-(trifluoromethyl)phenyl)amino)benzoate] | ≥ 7.00 |
| COC(=O)c1ccc(Nc2ccc(C(F)(F)F)cc2)c(-c2ccnc(N)c2)c1 [Compound 34, methyl 3-(2-amino-4-pyridyl)-4-[4-(trifluoromethyl)anilino] benzoate] | ≥ 7.00 |
| CC(C)NC(=O)c1ccc(Nc2ccc(C(F)(F)F)cc2)c(-c2cn(C)cn2)c1 [Compound 36, N-Isopropyl-3-(-methylimidazol-4-yl)-4-[4-(trifluoromethyl)anilino] benzamide] | ≥ 7.00 |
| Cn1cnc(-c2cc(C(=O)NC3CC3)ccc2Nc2ccc(C(F)(F)F)cc2)c1 [Compound 37, N-cyclopropyl-3-(1-methylimidazol-4-yl)-4-[4 (trifluoromethyl)anilino] benzamide] | ≥ 7.00 |
| Cn1cnc(-c2cc(C(=O)NS(N)(=O)=O)ccc2Nc2ccc(C(F)(F)F)cc2)c1 [Compound 38, 3-(1-methylimidazol-4-yl)-N-sulfamoyl-4-[4-(trifluoromethyl)anilino] benzamide] | ≥ 7.00 |
